Source: article PMC4503722, “Novel Phenotypic Outcomes Identified for a Public Collection of Approved Drugs from a Publicly Accessible Panel of Assays” (PLoS ONE, 2015)
Like-named read-outs stand apart in the source and are kept apart here.

Tests used:
[1] = system: endothelial tube formation in co-cultures of ECFCs and ADSCs treated with VEGF; experiment: cells; assay type: cell-based, human
HeLa cells = experiment: cells; assay type: cell-based; conditions: for Hela CellCycMod PI S Phase IC50/EC50: assay number 15; for Hela CellCycMod PI Cell Number IC50/EC50: assay number 18;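 on Hela CellCycMod PI 4N summarized IC50: value tracks stimulation of 4N DNA content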
DLD-1 = experiment: cells; assay type: cell-based; conditions: assay number 23, basal
SW480 = experiment: cells; assay type: cell-based; conditions: assay number 24, basal
HCT116 = experiment: cells; assay type: cell-based; conditions: assay number 25, basal
[2] = system: HCT116 cells treated with a GSK3β inhibitor; experiment: cells; assay type: cell-based; conditions: assay number 26, GSK3b inhibitor pretreated
Colo320 = experiment: cells; assay type: cell-based; conditions: assay number 27, basal
HT-29 = experiment: cells; assay type: cell-based; conditions: assay number 28, basal
RKO = experiment: cells; assay type: cell-based; conditions: assay number 29, basal
SNU-C1 = experiment: cells; assay type: cell-based; conditions: assay number 30, basal
hp70S6K1 (RPS6KB1) = target: T1, hp70S6K1 (RPS6KB1) (Homo sapiens, UniProt P23443); experiment: Cerep LANCE kinase assay hp70S6K1 (S1 assay 31); assay type: biochemical; conditions: assay number 31
T1 construct: purchased Cerep (LANCE kinase assay platform, contract assay)
T1 sequence (P23443 whole entry): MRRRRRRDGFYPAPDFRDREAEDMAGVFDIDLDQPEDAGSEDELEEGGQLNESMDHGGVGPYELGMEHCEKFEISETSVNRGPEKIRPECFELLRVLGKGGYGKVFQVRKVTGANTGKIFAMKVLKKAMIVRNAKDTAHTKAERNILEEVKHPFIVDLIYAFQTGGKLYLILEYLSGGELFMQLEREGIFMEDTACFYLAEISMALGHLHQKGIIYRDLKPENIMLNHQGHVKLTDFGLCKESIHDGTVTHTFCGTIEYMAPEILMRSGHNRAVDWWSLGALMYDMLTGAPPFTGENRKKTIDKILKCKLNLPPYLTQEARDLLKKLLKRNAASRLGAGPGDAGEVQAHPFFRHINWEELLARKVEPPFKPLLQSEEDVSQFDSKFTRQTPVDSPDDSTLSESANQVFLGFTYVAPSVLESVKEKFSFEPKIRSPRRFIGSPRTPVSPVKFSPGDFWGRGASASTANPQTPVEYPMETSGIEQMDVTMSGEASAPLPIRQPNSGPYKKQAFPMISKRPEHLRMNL

hKDR = target: T2, hKDR (Homo sapiens, UniProt P35968); experiment: Cerep LANCE kinase assay hKDR (S1 assay 32); assay type: biochemical; conditions: assay number 32
T2 construct: purchased Cerep (LANCE kinase assay platform, contract assay)
T2 sequence (P35968 20-1356): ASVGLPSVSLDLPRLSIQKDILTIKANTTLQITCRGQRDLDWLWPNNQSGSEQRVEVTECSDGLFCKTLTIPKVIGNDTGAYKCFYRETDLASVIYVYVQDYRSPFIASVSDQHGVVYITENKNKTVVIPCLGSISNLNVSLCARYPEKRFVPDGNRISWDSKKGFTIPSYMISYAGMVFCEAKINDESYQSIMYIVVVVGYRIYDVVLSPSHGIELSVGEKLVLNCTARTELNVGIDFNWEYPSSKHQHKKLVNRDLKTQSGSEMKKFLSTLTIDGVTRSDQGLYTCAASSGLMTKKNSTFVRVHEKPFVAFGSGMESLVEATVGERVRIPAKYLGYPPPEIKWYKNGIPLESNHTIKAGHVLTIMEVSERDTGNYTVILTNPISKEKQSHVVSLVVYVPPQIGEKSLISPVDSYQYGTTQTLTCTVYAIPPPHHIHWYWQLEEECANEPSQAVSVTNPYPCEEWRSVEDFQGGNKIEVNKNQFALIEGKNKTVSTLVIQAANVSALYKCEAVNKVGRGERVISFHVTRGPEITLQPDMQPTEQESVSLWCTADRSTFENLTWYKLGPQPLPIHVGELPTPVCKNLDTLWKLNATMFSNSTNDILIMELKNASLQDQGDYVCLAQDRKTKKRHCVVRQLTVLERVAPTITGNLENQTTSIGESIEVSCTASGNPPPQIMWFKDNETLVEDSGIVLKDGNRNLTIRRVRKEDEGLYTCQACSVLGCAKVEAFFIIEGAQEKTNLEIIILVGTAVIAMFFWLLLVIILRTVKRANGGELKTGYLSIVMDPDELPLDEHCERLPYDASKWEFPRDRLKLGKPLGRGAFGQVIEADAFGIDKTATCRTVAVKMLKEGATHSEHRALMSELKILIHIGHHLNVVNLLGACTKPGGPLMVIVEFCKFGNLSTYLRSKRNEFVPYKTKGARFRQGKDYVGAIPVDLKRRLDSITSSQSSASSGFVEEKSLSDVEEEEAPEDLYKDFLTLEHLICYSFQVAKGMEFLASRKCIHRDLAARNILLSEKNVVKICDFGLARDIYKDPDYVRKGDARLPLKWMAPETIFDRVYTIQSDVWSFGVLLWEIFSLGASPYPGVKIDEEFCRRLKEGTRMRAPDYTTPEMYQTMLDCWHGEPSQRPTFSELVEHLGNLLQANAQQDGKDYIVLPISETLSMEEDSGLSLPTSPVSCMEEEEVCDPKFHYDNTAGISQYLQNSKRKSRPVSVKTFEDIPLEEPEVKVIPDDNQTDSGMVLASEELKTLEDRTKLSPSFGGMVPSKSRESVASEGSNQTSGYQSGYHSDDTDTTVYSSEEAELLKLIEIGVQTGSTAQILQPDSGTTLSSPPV

hJAK2 = target: T3, hJAK2 (Homo sapiens, UniProt O60674); experiment: Cerep LANCE kinase assay hJAK2 (S1 assay 33); assay type: biochemical; conditions: assay number 33
T3 construct: purchased Cerep (LANCE kinase assay platform, contract assay)
T3 sequence (O60674 whole entry): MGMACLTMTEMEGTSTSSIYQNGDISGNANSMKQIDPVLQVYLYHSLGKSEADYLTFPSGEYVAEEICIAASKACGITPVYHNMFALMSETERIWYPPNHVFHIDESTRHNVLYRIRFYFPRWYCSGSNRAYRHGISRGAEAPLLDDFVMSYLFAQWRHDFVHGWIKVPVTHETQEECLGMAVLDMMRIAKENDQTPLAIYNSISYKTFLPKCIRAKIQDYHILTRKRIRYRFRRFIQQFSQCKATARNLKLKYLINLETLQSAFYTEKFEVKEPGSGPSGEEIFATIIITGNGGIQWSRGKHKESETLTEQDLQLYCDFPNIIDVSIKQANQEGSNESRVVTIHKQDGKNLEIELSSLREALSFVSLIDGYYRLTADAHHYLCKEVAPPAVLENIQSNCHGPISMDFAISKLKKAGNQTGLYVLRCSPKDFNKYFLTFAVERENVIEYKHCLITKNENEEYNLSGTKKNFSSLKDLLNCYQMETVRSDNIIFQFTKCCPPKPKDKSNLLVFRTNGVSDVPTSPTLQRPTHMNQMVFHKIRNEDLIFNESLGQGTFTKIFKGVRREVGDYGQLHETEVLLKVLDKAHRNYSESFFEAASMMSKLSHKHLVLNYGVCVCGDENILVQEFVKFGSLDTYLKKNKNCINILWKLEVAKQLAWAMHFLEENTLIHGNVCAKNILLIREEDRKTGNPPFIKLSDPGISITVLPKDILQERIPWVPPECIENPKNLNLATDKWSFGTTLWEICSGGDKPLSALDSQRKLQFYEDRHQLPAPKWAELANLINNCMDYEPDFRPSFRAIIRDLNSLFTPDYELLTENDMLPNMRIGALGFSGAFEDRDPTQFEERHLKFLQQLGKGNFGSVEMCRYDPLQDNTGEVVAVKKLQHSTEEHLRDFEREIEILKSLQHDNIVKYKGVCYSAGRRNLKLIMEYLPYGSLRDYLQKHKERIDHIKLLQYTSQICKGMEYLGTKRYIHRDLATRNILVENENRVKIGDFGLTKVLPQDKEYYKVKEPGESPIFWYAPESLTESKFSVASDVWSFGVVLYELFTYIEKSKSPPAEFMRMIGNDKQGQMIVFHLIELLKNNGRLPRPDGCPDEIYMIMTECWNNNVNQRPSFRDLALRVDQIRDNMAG

hGSK3b = target: T4, hGSK3b (Homo sapiens, UniProt P49841); experiment: Cerep LANCE kinase assay hGSK3b (S1 assay 34); assay type: biochemical; conditions: assay number 34
T4 construct: purchased Cerep (LANCE kinase assay platform, contract assay)
T4 sequence (P49841 whole entry): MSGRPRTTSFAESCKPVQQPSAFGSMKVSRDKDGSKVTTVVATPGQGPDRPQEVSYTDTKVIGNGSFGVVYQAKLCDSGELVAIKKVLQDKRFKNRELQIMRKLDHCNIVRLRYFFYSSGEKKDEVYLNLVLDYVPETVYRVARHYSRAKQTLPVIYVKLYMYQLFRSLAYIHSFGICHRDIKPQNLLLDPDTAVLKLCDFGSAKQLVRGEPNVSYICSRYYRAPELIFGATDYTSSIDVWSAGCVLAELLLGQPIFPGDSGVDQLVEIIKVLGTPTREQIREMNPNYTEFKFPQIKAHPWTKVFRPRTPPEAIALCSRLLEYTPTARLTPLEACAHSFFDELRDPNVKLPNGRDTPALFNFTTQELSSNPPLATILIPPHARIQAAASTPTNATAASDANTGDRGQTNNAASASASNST

hFLT3 = target: T5, hFLT3 (Homo sapiens, UniProt P36888); experiment: Cerep LANCE kinase assay hFLT3 (S1 assay 35); assay type: biochemical; conditions: assay number 35
T5 construct: purchased Cerep (LANCE kinase assay platform, contract assay)
T5 sequence (P36888 27-993): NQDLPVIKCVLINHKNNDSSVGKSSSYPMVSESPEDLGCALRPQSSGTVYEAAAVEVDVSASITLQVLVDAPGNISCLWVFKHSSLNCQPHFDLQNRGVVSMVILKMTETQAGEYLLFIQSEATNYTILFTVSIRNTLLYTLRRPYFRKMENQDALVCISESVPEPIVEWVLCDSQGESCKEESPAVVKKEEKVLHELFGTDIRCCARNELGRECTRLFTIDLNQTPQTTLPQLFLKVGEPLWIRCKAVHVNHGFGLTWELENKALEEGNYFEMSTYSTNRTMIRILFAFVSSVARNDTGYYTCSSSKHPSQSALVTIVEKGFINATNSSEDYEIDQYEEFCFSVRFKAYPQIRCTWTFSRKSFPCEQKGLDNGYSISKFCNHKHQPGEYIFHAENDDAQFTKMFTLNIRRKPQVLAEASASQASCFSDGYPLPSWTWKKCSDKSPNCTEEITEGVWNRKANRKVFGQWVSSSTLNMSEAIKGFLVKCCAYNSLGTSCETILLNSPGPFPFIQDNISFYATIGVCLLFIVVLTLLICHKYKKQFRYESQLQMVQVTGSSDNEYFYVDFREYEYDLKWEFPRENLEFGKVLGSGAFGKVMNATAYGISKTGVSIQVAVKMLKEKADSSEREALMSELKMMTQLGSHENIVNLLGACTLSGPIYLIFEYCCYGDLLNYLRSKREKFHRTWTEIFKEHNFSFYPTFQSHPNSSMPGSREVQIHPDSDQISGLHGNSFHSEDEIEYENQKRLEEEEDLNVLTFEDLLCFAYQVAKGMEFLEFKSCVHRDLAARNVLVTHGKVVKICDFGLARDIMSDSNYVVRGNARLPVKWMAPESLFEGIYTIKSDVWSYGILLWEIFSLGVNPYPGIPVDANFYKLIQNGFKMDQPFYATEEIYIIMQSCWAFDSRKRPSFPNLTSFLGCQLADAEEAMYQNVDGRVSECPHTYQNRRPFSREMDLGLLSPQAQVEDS

[3] = system: ECFC/ADSC co-culture cell nuclei number

Row | SMILES | VEGF_ADSC\ECFC Angio CD31 TubeArea IC50/EC50 [1] [µM] | Hela CellCycMod PI 2N IC50/EC50 (HeLa cells; assay number 14, 2N) [µM] | Hela CellCycMod PI S Phase IC50/EC50 (HeLa cells) [µM] | Hela CellCycMod PI 4N IC50/EC50 (HeLa cells; assay number 16, 4N) [µM] | Hela CellCycMod PI MI IC50/EC50 (HeLa cells; assay number 17, MI) [µM] | Hela CellCycMod PI Cell Number IC50/EC50 (HeLa cells) [µM] | Basal_Viability ATP DLD-1 IC50/EC50 (DLD-1) [µM] | Basal_Viability ATP SW480 IC50/EC50 (SW480) [µM] | Basal_Viability ATP HCT116 IC50/EC50 (HCT116) [µM] | Basal_Viability ATP Colo 320 IC50/EC50 (Colo320) [µM] | Basal_Viability ATP HT-29 IC50/EC50 (HT-29) [µM] | Basal_Viability ATP RKO IC50/EC50 (RKO) [µM] | Basal_Viability ATP SNU-C1 IC50/EC50 (SNU-C1) [µM] | hp70S6K1 LANCE IC50/EC50 (hp70S6K1 (RPS6KB1)) [µM] | hKDR LANCE IC50/EC50 (hKDR) [µM] | hJAK2 LANCE IC50/EC50 (hJAK2) [µM] | hGSK3b LANCE IC50/EC50 (hGSK3b) [µM] | hFLT3 LANCE IC50/EC50 (hFLT3) [µM] | VEGF_ADSC\ECFC Angio Hoechst NucArea IC50/EC50 [3] [µM] | other results
1 | Oc1c(Cl)cc(Cl)c2cccnc12 [NCGC00095264-04] |  |  |  |  |  |  |  |  |  |  |  |  |  |  |  |  |  |  |  | IC50 ([1]; read-out: VEGF_ADSC\ECFC Angio CD31 TubeArea summarized IC50): 2 µM; IC50 (HeLa cells; assay number 14, 2N, read-out: Hela CellCycMod PI 2N summarized IC50): > 10 µM; IC50 (HeLa cells; assay number 16, 4N, read-out: Hela CellCycMod PI 4N summarized IC50): > 10 µM; IC50 (HeLa cells; assay number 17, MI, read-out: Hela CellCycMod PI MI summarized IC50): > 10 µM; IC50 (DLD-1; read-out: Basal_Viability ATP DLD-1 summarized IC50): 0.409 µM; IC50 (SW480; read-out: Basal_Viability ATP SW480 summarized IC50): 0.0438 µM; IC50 (HCT116; read-out: Basal_Viability ATP HCT116 summarized IC50): 0.0475 µM; IC50 ([2]; read-out: GSK3b inh pretreated_Viability ATP HCT116 summarized IC50): 0.0393 µM; IC50 (Colo320; read-out: Basal_Viability ATP Colo 320 summarized IC50): 0.0493 µM; IC50 (HT-29; read-out: Basal_Viability ATP HT-29 summarized IC50): > 20 µM; IC50 (RKO; read-out: Basal_Viability ATP RKO summarized IC50): 0.0627 µM; IC50 (SNU-C1; read-out: Basal_Viability ATP SNU-C1 summarized IC50): 0.495 µM; IC50 (hp70S6K1 (RPS6KB1); read-out: hp70S6K1 LANCE summarized IC50): > 20 µM; IC50 (hKDR; read-out: hKDR LANCE summarized IC50): > 20 µM; IC50 (hJAK2; read-out: hJAK2 LANCE summarized IC50): > 20 µM; IC50 (hGSK3b; read-out: hGSK3b LANCE summarized IC50): > 20 µM; IC50 (hFLT3; read-out: hFLT3 LANCE summarized IC50): > 20 µM; IC50 ([3]; read-out: VEGF_ADSC\ECFC Angio Hoechst NucArea summarized IC50): > 10 µM
2 | COc1c(C)c2c(c(O)c1C/C=C(\C)CCC(=O)OCCN1CCOCC1)C(=O)OC2 [NCGC00159459-04] | 1.2605 | > 10 | 0.0147 | > 10 | > 10 | > 10 | > 20 | 2.5974 | 0.0672 | 0.001 | > 20 | 0.1648 | > 20 | > 20 | > 20 | > 20 | > 20 | > 20 | > 10 | GSK3b inh pretreated_Viability ATP HCT116 IC50/EC50 [2]: 0.0498 µM
3 | COc1ccc(-c2ccc3cc(C(=O)O)ccc3c2)cc1C12CC3CC(CC(C3)C1)C2 [NCGC00164617-04] | 0.5236 | > 10 | > 10 | > 10 | > 10 | 5.4943 | 0.5971 | 0.4051 | 0.5897 | 0.7871 | 1.1248 | 0.4435 | 1.7798 | > 20 | 7.1 | 5.57 | 7.25 | > 20 | > 10 | 
